Assays:
[1] = test system: Rab29 mediated relocalization of LRRK2 to the Golgi apparatus; test: Rab29 mediated recruitment of LRRK2 to the Golgi, immunofluorescence in HeLa cells; type: cell-based, human; conditions: 5 μM GZD-824 or 1 μM GSK3357679A for 4 h
Protocol: HeLa cells were seeded on coverslips and transfected with the plasmid reported in each image 24 h before fixation. Following the treatments with the inhibitors described in figure legends, cells were washed twice in DPBS and fixed with 3.7% Paraformaldehyde pH 7.3 (Agar scientific, #R1026), 200 mM HEPES, for 20 min. Cells were then washed twice with DMEM, 20 mM HEPES, and then incubated for 10 min with DMEM, 10 mM HEPES. After two washes in DPBS, fixed cells were permeabilized with 0.2% (by vol) NP-40 in DPBS for 10 min. Cells were blocked using 1% (by mass) BSA in DPBS, then incubated for 1 h with primary antibodies diluted in 1% (by mass) BSA in DPBS, washed three times in 0.2% (by mass) BSA in DPBS, and incubated for 1 h with secondary antibodies. The coverslips were washed three times with 0.2% (by mass) BSA in PBS. Coverslips were washed once more in double distilled water and mounted on slides (VWR, #631-0909) using ProLong™ Diamond Antifade Mountant (ThermoFisher, #P36961). For localization of the Golgi compartment, Golgin-97 was stained with rabbit anti-GM97 (CST, #D8P2K) and visualized with goat anti-rabbit conjugated to Alexa Fluor 405 (Life Technologies, #P10994). HA-Rab29 was stained with mouse anti-HA (Abcam, clone HA.C5 #ab18181) and visualized with goat anti-mouse conjugated to Alexa Fluor 594 (Life Technologies, #A-11032). […]

wild-type Flag-LRRK2 = target: T1, wild-type Flag-LRRK2 (Homo sapiens, UniProt Q5S007); test: IC50 LRRK2 Nictide assay, wild type; type: biochemical
T1 construct: Human recombinant full length wild-type Flag-LRRK2 (#A15198); Flag (N); purchased ThermoFisher Scientific A15198
Protocol: (#A15201) purchased from ThermoFisher Scientific. […] After incubation for 30 min at room temperature, reactions were terminated by harvesting the whole reaction volume onto P81 phosphocellulose filter plate and immersion in 50 mM phosphoric acid. […] IC50 values were calculated with GraphPad Prism using non-linear regression analysis.

[2] = test system: Dundee panel of 140 protein kinases; test: Kinase profiling; type: biochemical
Source text: […] Results for each kinase are presented as the mean kinase activity ±S.D. for an assay undertaken in duplicate relative to a control kinase assay in which the inhibitor was omitted. Abbreviations and assay conditions used for each kinase are available (http://www.kinase-screen.mrc.ac.uk/services/premier-screen).

[3] = test system: basal mitophagy, LRRK2[G2019S] MEFs; test: mito-QC basal mitophagy in LRRK2[G2019S] knock-in primary MEFs; type: cell-based, mouse; conditions: 24 h, 30–300 nM GZD-824, GSK3357679A 100 nM positive control
Protocol: (§1) To assess mitophagy, wild type, G2019S knock in, and LRRK2 knock out primary mouse embryonic fibroblasts (MEFs) were derived, from time-mated pregnant females at E12.5 as previously described. Briefly, cells were plated on glass coverslips and incubated with DMEM (Gibco, 11960-044) supplemented with 10% FBS, 2 mM L-Glutamine (Gibco, 2503-081), 1% non-essential amino acids (Gibco, 11140-035), 1% Antibiotics (Penicillin/Streptomycin 100 U/ml penicillin and 100 µg/ml streptomycin; Gibco), and 150 µM β-Mercaptoethanol (Gibco, 21985-023) at 37°C under a humidified 5% CO2 atmosphere. […] GSK3357679A 100 nM (Ding et al., in prep) was used as a positive control. At the end of the treatment, MEFs were briefly washed twice in DPBS (Gibco, 14190-094), and fixed in 3.7% Paraformaldehyde pH 7.00 (Sigma, P6148), 200 mM HEPES, for 20 min. Cells were then washed two times with DMEM, 10 mM HEPES, and then incubated for 10 min with DMEM, 10 mM HEPES. […] Images were acquired using a Nikon Eclipse Ti-S fluorescence microscope with a 63× objective. Images were analyzed using the mito-QC counter as previously described. Experiments were performed in 3–4 independent experiments and data was analyzed with a one-way ANOVA followed by a Dunnett's multiple comparison test using the GraphPad Prism software (version 8.4.3 (686)).

[4] = test system: basal mitophagy, LRRK2 knock-out MEFs; test: mito-QC basal mitophagy in LRRK2 knock-out primary MEFs; type: cell-based, mouse; conditions: 24 h
Protocol: as §1

[5] = test system: LRRK2 Ser935 phosphorylation; test: Ser935 phosphorylation in HEK293 cells overexpressing wild-type LRRK2; type: cell-based, human; conditions: 1 μM
Protocol: Cell extracts were mixed with a quarter of a volume of NuPage LDS Sample buffer 4× Invitrogen and heated at 95°C for 5 min. […] At the end of electrophoresis, proteins were electrophoretically transferred onto the nitrocellulose membrane (GE Healthcare, Amersham Protran Supported 0.45 µm NC) at 100 V for 90 min on ice in the transfer buffer (48 mM Tris–HCl and 39 mM glycine supplemented with 20% methanol). Transferred membrane was blocked with 5% (w/v) skim milk powder dissolved in TBS-T [20 mM Tris–HCl, pH 7.5, 150 mM NaCl and 0.1% (v/v) Tween 20] at room temperature for 1 h. The membrane was typically cropped into three pieces, namely the ‘top piece’ (from the top of the membrane to 75 kDa), the ‘middle piece’ (between 75 and 30 kDa) and the ‘bottom piece’ (from 30 kDa to the bottom of the membrane). All primary antibodies were used at 1 μg/ml final concentration and incubated in TBS-T containing 5% (by mass) bovine serum albumin with exception of α-tubulin and GAPDH antibodies that were diluted 1 : 5000 and 1 : 2000, respectively. The top piece was incubated with the indicated rabbit anti-LRRK2 phosphorylation site antibody multiplexed with mouse anti-LRRK2 C-terminus total antibody. […] Protein bands were acquired via near infrared fluorescent detection using the Odyssey CLx imaging system and quantified using the Image Studio software. […]

Flag-LRRK2[G2019S] = target: T2, Flag-LRRK2[G2019S] (Homo sapiens, UniProt Q5S007, G2019S); test: IC50 LRRK2 Nictide assay, G2019S; type: biochemical; conditions: read-out: IC50 LRRK2 G2019S (100 µM ATP), Nictide peptide substrate, value ± SD
T2 construct: towards full length wild type and G2019S pathogenic LRRK2 mutant in a biochemical assay; Flag (N); purchased ThermoFisher Scientific A15201

LRRK2 14-3-3 binding = test system: T3, LRRK2 14-3-3 binding; test: Analysis of 14-3-3 binding in HEK293 cells overexpressing wild-type LRRK2; type: cell-based, human; conditions: 5 μM GZD-824 for 4 h, 1 μM GSK3357679A
T3 construct: host or cells: HEK293
Protocol: This was undertaken as described previously. Briefly, wild-type FLAG-LRRK2 was transiently expressed in HEK293 cells with HA-Rab29. Twenty-four hours post-transfection cells were lysed with lysis buffer and snap frozen. LRRK2 was immunoprecipitated from 4 mg of lysate using 20 μl anti-FLAG-M2 agarose beads (Sigma, #A2220) for 2 h in rotation at +4°C. Immunoprecipitates were washed once with lysis buffer supplemented with 0.5% (by vol) Nonidet P-40 (instead of Triton X-100) and 0.5 M NaCl followed by two washes. Samples were eluted in 2× LDS sample buffer (20 µl per 10 µl of resin) and heated at 70°C for 10 min. After centrifugation through 0.22 µm Spin X filter, the eluted protein was subjected to immunoblotting with the indicated antibodies. An amount of 10 μl of the final reaction mixture was needed for the detection of binding of endogenous 14-3-3 and 1 µl for detection of LRRK2.

[6] = test system: basal mitophagy, wild type MEFs; test: mito-QC basal mitophagy in wild-type primary MEFs; type: cell-based, mouse; conditions: 24 h, 30–300 nM GZD-824, GSK3357679A 100 nM positive control
Protocol: as §1

T1 sequence (Q5S007 whole entry): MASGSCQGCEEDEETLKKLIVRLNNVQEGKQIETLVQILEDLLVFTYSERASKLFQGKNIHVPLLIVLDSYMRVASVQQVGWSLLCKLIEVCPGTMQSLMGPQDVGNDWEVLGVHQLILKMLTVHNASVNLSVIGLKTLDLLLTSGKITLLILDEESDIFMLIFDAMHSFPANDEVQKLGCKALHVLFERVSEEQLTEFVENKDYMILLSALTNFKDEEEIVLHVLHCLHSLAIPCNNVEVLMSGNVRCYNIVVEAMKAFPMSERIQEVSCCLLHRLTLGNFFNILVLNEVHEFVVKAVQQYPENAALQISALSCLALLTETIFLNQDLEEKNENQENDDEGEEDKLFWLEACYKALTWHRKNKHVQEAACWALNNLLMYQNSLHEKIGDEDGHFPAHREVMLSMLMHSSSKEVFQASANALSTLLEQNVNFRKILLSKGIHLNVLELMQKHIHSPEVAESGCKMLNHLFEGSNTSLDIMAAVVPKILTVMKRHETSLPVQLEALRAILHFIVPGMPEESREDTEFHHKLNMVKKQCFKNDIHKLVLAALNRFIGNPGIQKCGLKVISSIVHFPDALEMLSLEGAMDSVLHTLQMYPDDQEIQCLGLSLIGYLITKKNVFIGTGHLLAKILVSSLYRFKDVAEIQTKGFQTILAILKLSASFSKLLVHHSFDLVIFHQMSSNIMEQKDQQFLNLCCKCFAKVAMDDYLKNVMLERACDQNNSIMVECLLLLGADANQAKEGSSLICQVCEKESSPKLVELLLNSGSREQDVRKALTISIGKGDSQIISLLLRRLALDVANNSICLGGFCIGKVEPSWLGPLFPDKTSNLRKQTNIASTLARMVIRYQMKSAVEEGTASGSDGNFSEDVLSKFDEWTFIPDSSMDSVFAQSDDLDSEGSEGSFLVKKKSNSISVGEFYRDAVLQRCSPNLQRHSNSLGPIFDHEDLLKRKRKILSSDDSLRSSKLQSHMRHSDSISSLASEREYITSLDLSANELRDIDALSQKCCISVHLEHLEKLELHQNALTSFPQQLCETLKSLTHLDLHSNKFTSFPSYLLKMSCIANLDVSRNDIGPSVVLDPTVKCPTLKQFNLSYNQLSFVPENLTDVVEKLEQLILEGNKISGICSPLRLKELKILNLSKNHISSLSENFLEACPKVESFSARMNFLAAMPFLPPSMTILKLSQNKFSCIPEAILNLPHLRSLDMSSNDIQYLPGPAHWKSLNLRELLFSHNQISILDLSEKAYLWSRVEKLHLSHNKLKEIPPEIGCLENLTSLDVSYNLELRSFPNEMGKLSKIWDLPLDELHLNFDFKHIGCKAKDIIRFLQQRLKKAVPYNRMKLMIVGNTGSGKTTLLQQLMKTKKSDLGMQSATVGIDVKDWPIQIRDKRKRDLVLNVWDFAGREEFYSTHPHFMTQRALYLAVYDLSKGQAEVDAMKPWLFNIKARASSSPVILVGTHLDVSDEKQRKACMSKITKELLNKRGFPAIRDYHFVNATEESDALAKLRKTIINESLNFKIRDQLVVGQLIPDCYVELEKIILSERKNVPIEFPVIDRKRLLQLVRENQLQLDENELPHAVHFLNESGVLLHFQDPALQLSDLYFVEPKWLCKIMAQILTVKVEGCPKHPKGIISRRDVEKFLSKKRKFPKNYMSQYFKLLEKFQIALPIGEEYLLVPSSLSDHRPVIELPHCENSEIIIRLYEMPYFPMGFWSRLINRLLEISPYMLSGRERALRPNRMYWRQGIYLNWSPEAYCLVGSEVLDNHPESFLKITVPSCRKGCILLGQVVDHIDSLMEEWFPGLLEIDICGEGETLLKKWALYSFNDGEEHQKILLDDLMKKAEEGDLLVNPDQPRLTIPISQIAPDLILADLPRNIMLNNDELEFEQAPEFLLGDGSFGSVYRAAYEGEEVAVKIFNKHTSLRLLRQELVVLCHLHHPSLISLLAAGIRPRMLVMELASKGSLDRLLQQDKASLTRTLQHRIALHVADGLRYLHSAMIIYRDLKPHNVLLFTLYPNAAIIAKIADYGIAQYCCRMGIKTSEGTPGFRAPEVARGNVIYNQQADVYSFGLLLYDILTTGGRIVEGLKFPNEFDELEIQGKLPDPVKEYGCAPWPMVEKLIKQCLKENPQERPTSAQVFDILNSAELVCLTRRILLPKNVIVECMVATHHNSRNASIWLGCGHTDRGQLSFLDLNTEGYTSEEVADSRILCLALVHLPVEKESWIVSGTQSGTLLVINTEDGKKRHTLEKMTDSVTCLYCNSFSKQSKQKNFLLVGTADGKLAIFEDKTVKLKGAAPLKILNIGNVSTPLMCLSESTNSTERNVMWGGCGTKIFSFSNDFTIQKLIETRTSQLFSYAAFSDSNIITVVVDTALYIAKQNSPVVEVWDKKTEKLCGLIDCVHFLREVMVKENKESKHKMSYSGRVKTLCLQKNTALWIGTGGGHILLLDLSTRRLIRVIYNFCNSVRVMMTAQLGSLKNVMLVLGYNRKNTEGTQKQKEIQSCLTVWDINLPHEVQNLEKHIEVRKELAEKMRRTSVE
T2 sequence (Q5S007 whole entry G2019S): as the sequence (Q5S007 whole entry) above, with G2019S counted along it

IC50 LRRK2 WT (100 µM ATP) (wild-type Flag-LRRK2; Nictide peptide substrate, value ± SD): sub-nanomolar potency
IC50 (wild-type Flag-LRRK2; read-out: IC50 LRRK2 WT (100 µM ATP), Nictide peptide substrate, value ± SD): 0.3 nM
kinase selectivity (panel of 140 protein kinases) [2]: highly selective
IC50 (Flag-LRRK2[G2019S]): 0.34 nM
Substance: GSK3357679A
impact on Rab29 mediated recruitment of LRRK2 to the Golgi [1]: no impact
stimulation of basal mitophagy [3]: ~2 fold
impact on basal mitophagy in LRRK2 knock-out cells [4]: neither GZD-824 or GSK3357679A impacted basal mitophagy
effect on Ser935 phosphorylation [5]: ablated
impact on 14-3-3 binding to LRRK2 (LRRK2 14-3-3 binding): ablated
stimulation of basal mitophagy [6]: ~2 fold

From publication PMC8589421, “Impact of Type II LRRK2 inhibitors on signaling and mitophagy” (Biochemical Journal, 2021)
